How the values were obtained:
Assay type in all cases: in vivo
[1] = system: sunflower (Helianthus annuus); test: Pre-emergent Test I; conditions: 14 d after treatment, scale 0 (no herbicidal effect) to 100 (plant death or lack of emergence)
Description: (§1) Pre-emergent Test I: Weed seeds were obtained from commercial suppliers and planted into round plastic pots (5-inch diameter) containing silt loam soil (23% sand, 52% silt, 29% clay, 2.9% organic matter, CEC 16.6, pH 7.2). After planting, all pots were subirrigated 16 h prior to compound application. Compounds were dissolved in a 97:3 v/v mixture of acetone and DMSO and diluted to the appropriate concentration in a final application solution containing water, acetone, isopropyl alcohol, DMSO and Agri-dex (crop oil concentrate) in a 59:23:15:1.0:1.5 v/v ratio and 0.02% w/v of Triton X-155 to obtain the spray solution containing the highest application rate. The high application rate was serial diluted with the above application solution to provide delivery of the compound at rates 1/2×, 1/4× and 1/8× of the highest rate (equivalent to 4.0, 2.0, 1.0, and 0.5 kg/ha, respectively). Formulated compound (2.7 mL) was pipetted evenly over the soil surface followed by incorporation with water (15 mL). Following treatment, pots were returned to the greenhouse for the duration of the experiment. The greenhouse was programmed for an approximate 15 h photoperiod which was maintained at about 23-29° C. during the day and 22-28° C. during the night. Nutrients and water were added on a regular basis through surface irrigation and supplemental lighting was provided with overhead metal halide 1000-Watt lamps as necessary. Herbicidal effect ratings were obtained 14 d after treatment. All evaluations were made relative to appropriate controls on a scale of 0 to 100 where 0 represents no herbicidal effect and 100 represents plant death or lack of emergence from the soil.

[2] = system: ivyleaf morningglory (Ipomoea hederacea); test: Pre-emergent Test I; conditions: 14 d after treatment, scale 0 (no herbicidal effect) to 100 (plant death or lack of emergence)
Description: as §1

wild oat (Avena fatua) [3] = test: Pre-emergent Test I; conditions: 14 d after treatment, scale 0 (no herbicidal effect) to 100 (plant death or lack of emergence)
Description: as §1

[4] = system: pigweed (Amaranthus retroflexus); test: Pre-emergent Test I; conditions: 14 d after treatment, scale 0 (no herbicidal effect) to 100 (plant death or lack of emergence)
Description: as §1

[5] = system: giant foxtail (Setaria faberi); test: Pre-emergent Test I; conditions: 14 d after treatment, scale 0 (no herbicidal effect) to 100 (plant death or lack of emergence)
Description: as §1

[6] = system: sunflower (Helianthus annuus); test: Post-emergent Test I; conditions: 10 d after treatment, scale 0 (no activity) to 100 (complete plant death)
Description: (§2) Post-emergent Test I: Weed seeds were obtained from commercial suppliers and planted into 5″-round pots containing soilless media mix (Metro-Mix 360®, Sun Gro Horticulture Canada CM Ltd. Vancouver, British Columbia) 8-12 d prior to application and cultured in a greenhouse equipped with supplemental light sources to provide a 16 h photoperiod at 24-29° C. All pots were surface irrigated. Compounds were dissolved in a 97:3 v/v (volume per volume) mixture of acetone and dimethyl sulfoxide (DMSO) and diluted to the appropriate concentration in a final application solution containing water, acetone, isopropyl alcohol, DMSO and Agri-dex (crop oil concentrate) in a 59:23:15:1.0:1.5 v/v ratio and 0.02% w/v (weight per volume) of Triton X-155 to obtain the spray solution containing the highest application rate. The high application rate was serial diluted with the above application solution to provide delivery of the compound at rates 1/2×, 1/4× and 1/8× of the highest rate (equivalent to 4.0, 2.0, 1.0, and 0.5 kg/ha, respectively). Formulated compound (2.7 mL) was applied using a DeVilbiss® compressed air sprayer at 2-4 pounds per square inch (psi) […]. Following treatment, pots were allowed to dry before being returned to the greenhouse for the duration of the experiment and subirrigated as needed. All pots were fertilized one time per week by subirrigating with Peters Peat-Lite Special® fertilizer (20-10-20). Phytotoxicity ratings were obtained 10 d after treatment. All evaluations were made on a scale of 0 to 100 where 0 represents no activity and 100 represents complete plant death.

[7] = system: ivyleaf morningglory (Ipomoea hederacea); test: Post-emergent Test I; conditions: 10 d after treatment, scale 0 (no activity) to 100 (complete plant death)
Description: as §2

wild oat (Avena fatua) [8] = test: Post-emergent Test I; conditions: 10 d after treatment, scale 0 (no activity) to 100 (complete plant death)
Description: as §2

[9] = system: pigweed (Amaranthus retroflexus); test: Post-emergent Test I; conditions: 10 d after treatment, scale 0 (no activity) to 100 (complete plant death)
Description: as §2

[10] = system: giant foxtail (Setaria faberi); test: Post-emergent Test I; conditions: 10 d after treatment, scale 0 (no activity) to 100 (complete plant death)
Description: as §2

[11] = system: bindweed (Polygonum convolvulus); test: Post-emergent Test II; conditions: after 14 d, 0 = no injury, 100 = complete kill
Description: (§3) Post-emergent Test II: Seeds or nutlets of the desired test plant species were planted in Sun Gro Metro-Mix® 360 planting mixture, which typically has a pH of 6.0 to 6.8 and an organic matter content of about 30 percent, in plastic pots with a surface area of 64 square centimeters. When required to ensure good germination and healthy plants, a fungicide treatment and/or other chemical or physical treatment was applied. The plants were grown for 7-21 d in a greenhouse with an approximate 15 h photoperiod which was maintained at about 23-29° C. during the day and 22-28° C. during the night. Nutrients and water were added on a regular basis and supplemental lighting was provided with overhead metal halide 1000-Watt lamps as necessary. The plants were employed for testing when they reached the first or second true leaf stage.
(§4) A weighed amount, determined by the highest rate to be tested, of each test compound was placed in a 25 mL glass vial and was dissolved in 4 mL of a 97:3 v/v mixture of acetone and DMSO to obtain concentrated stock solutions. […] The concentrated stock solutions obtained were diluted with 20 mL of an aqueous mixture containing acetone, water, isopropyl alcohol, DMSO, Atplus 411F crop oil concentrate, and Triton® X-155 surfactant in a 48.5:39:10:1.5:1.0:0.02 v/v ratio to obtain spray solutions containing the highest application rates. Additional application rates were obtained by serial dilution of 12 mL of the high rate solution into a solution containing 2 mL of 97:3 v/v mixture of acetone and DMSO and 10 mL of an aqueous mixture containing acetone, water, isopropyl alcohol, DMSO, Atplus 411F crop oil concentrate, and Triton X-155 surfactant in a 48.5:39:10:1.5:1.0:0.02 v/v ratio to obtain 1/2×, 1/4×, 1/8× and 1/16× rates of the high rate. Compound requirements are based upon a 12 mL application volume at a rate of 187 liters per hectare (L/ha). Formulated compounds were applied to the plant material with an overhead Mandel track sprayer equipped with 8002E nozzles calibrated to deliver 187 L/ha over an application area of 0.503 square meters at a spray height of 18 inches (43 cm) above the average plant canopy height. Control plants were sprayed in the same manner with the solvent blank.
(§5) The treated plants and control plants were placed in a greenhouse as described above and watered by subirrigation to prevent wash-off of the test compounds. After 14 d, the condition of the test plants as compared with that of the untreated plants was determined visually and scored on a scale of 0 to 100 percent where 0 corresponds to no injury and 100 corresponds to complete kill.

rice (Oryza sativa) = test: Post-emergent Test II; conditions: after 14 d, 0 = no injury, 100 = complete kill
Description: as §3, §4, §5

[12] = system: velvetleaf (Abutilon theophrasti); test: Post-emergent Test II; conditions: after 14 d, 0 = no injury, 100 = complete kill
Description: as §3, §4, §5

[13] = system: lambsquarters (Chenopodium album); test: Post-emergent Test II; conditions: after 14 d, 0 = no injury, 100 = complete kill
Description: as §3, §4, §5

[14] = system: barnyardgrass (Echinochloa crus-galli); test: Post-emergent Test II; conditions: after 14 d, 0 = no injury, 100 = complete kill
Description: as §3, §4, §5

SMILES: COC(=O)C1=C(Cl)/C(=N/OS(C)(=O)=O)CC(c2ccc(Cl)cc2)N1 (stereo not drawn) [Compound 27, 3-Chloro-6-(4-chlorophenyl)-4-[(E)-methanesulfonyloximino]-1,4,5,6-tetrahydropyridine-2-carboxylic acid methyl ester]
- Herbicidal effect rating HELAN ([1]; 3960 g ai/ha): 100
- Herbicidal effect rating IPOHE ([2]; 3960 g ai/ha): 100
- Herbicidal effect rating AVEFA (wild oat (Avena fatua) [3]; 3960 g ai/ha): 20
- Herbicidal effect rating AMARE ([4]; 3960 g ai/ha): 100
- Herbicidal effect rating SETFA ([5]; 3960 g ai/ha): 100
- Phytotoxicity rating HELAN ([6]; 3960 g ai/ha): 95
- Phytotoxicity rating IPOHE ([7]; 3960 g ai/ha): 85
- Phytotoxicity rating AVEFA (wild oat (Avena fatua) [8]; 3960 g ai/ha): 75
- Phytotoxicity rating AMARE ([9]; 3960 g ai/ha): 100
- Phytotoxicity rating SETFA ([10]; 3960 g ai/ha): 90

SMILES: COC(=O)C1=C(Cl)/C(=N/OS(C)(=O)=O)CC(c2ccc(Cl)c(OC)c2F)N1 (stereo not drawn) [Compound 29, 3-Chloro-6-(4-chloro-2-fluoro-3-methoxyphenyl)-4-[(E)-methanesulfonyloximino]-1,4,5,6-tetrahydropyridine-2-carboxylic acid methyl ester]
- Herbicidal effect rating HELAN ([1]; 4000 g ai/ha): 80
- Herbicidal effect rating IPOHE ([2]; 4000 g ai/ha): 95
- Herbicidal effect rating AVEFA (wild oat (Avena fatua) [3]; 4000 g ai/ha): 30
- Herbicidal effect rating AMARE ([4]; 4000 g ai/ha): 100
- Herbicidal effect rating SETFA ([5]; 4000 g ai/ha): 60
- Visual injury score POLCO ([11]; 140 g ai/ha): 90%
- Visual injury score ORYSA (rice (Oryza sativa); 140 g ai/ha): 0%
- Visual injury score ABUTH ([12]; 140 g ai/ha): 100%
- Visual injury score CHEAL ([13]; 140 g ai/ha): 100%
- Visual injury score ECHCG ([14]; 140 g ai/ha): 100%
- Phytotoxicity rating HELAN ([6]; 4000 g ai/ha): 90
- Phytotoxicity rating IPOHE ([7]; 4000 g ai/ha): 95
- Phytotoxicity rating AVEFA (wild oat (Avena fatua) [8]; 4000 g ai/ha): 30
- Phytotoxicity rating AMARE ([9]; 4000 g ai/ha): 100
- Phytotoxicity rating SETFA ([10]; 4000 g ai/ha): 90

SMILES: COC(=O)C1=C(Cl)/C(=N/OC(C)=O)CC(c2ccc(Cl)c(OC)c2F)N1 (stereo not drawn) [Compound 35, 3-chloro-6-(4-chloro-2-fluoro-3-methoxyphenyl)-4-[(E)-acetoxyoximino]-3-chloro-1,4,5,6-tetrahydropyridine-2-carboxylic acid methyl ester]
- Visual injury score POLCO ([11]; 70 g ai/ha): 100%
- Visual injury score ORYSA (rice (Oryza sativa); 70 g ai/ha): 0%
- Visual injury score ABUTH ([12]; 70 g ai/ha): 100%
- Visual injury score CHEAL ([13]; 70 g ai/ha): 100%
- Visual injury score ECHCG ([14]; 70 g ai/ha): 90%

SMILES: CCOC(=O)C1=C(Cl)/C(=N/OS(C)(=O)=O)CC(c2ccc(Cl)c(OC)c2F)N1 (stereo not drawn) [Compound 30, 3-Chloro-6-(4-chloro-2-fluoro-3-methoxyphenyl)-4-[(E)-methanesulfonyloximino]-1,4,5,6-tetrahydropyridine-2-carboxylic acid ethyl ester]
- Herbicidal effect rating HELAN ([1]; 3400 g ai/ha): 100
- Herbicidal effect rating IPOHE ([2]; 3400 g ai/ha): 100
- Herbicidal effect rating AVEFA (wild oat (Avena fatua) [3]; 3400 g ai/ha): 95
- Herbicidal effect rating AMARE ([4]; 3400 g ai/ha): 100
- Herbicidal effect rating SETFA ([5]; 3400 g ai/ha): 100
- Phytotoxicity rating HELAN ([6]; 3400 g ai/ha): 90
- Phytotoxicity rating IPOHE ([7]; 3400 g ai/ha): 95
- Phytotoxicity rating AVEFA (wild oat (Avena fatua) [8]; 3400 g ai/ha): 30
- Phytotoxicity rating AMARE ([9]; 3400 g ai/ha): 100
- Phytotoxicity rating SETFA ([10]; 3400 g ai/ha): 85

SMILES: COC(=O)C1=C(Cl)/C(=N/OS(=O)(=O)c2ccc(C)cc2)CC(c2ccc(Cl)c(OC)c2F)N1 (stereo not drawn) [Compound 31, 3-Chloro-6-(4-chloro-2-fluoro-3-methoxyphenyl)-4-[(E)-p-toluenesulfonyloximino]-1,4,5,6-tetrahydropyridine-2-carboxylic acid methyl ester]
- Herbicidal effect rating HELAN ([1]; 4000 g ai/ha): 100
- Herbicidal effect rating IPOHE ([2]; 4000 g ai/ha): 100
- Herbicidal effect rating AVEFA (wild oat (Avena fatua) [3]; 4000 g ai/ha): 10
- Herbicidal effect rating AMARE ([4]; 4000 g ai/ha): 100
- Herbicidal effect rating SETFA ([5]; 4000 g ai/ha): 10
- Phytotoxicity rating HELAN ([6]; 4000 g ai/ha): 90
- Phytotoxicity rating IPOHE ([7]; 4000 g ai/ha): 90
- Phytotoxicity rating AVEFA (wild oat (Avena fatua) [8]; 4000 g ai/ha): 40
- Phytotoxicity rating SETFA ([10]; 4000 g ai/ha): 80

SMILES: COC(=O)C1=C(Br)/C(=N/OS(C)(=O)=O)CC(c2ccc(Cl)c(OC)c2F)N1 (stereo not drawn) [Compound 32, 3-bromo-6-(4-chloro-2-fluoro-3-methoxyphenyl)-4-[(E)-methanesulfonyloximino]-1,4,5,6-tetrahydropyridine-2-carboxylic acid methyl ester]
- Visual injury score POLCO ([11]; 140 g ai/ha): 90%
- Visual injury score ORYSA (rice (Oryza sativa); 140 g ai/ha): 15%
- Visual injury score ABUTH ([12]; 140 g ai/ha): 100%
- Visual injury score CHEAL ([13]; 140 g ai/ha): 100%
- Visual injury score ECHCG ([14]; 140 g ai/ha): 90%

SMILES: CCOC(=O)C1=C(Cl)/C(=N/OS(C)(=O)=O)CC(c2ccc(Cl)cc2F)N1 (stereo not drawn) [Compound 26, 3-chloro-6-(4-chloro-2-fluorophenyl)-4-[(E)-methanesulfonyloximino]-1,4,5,6-tetrahydropyridine-2-carboxylic acid ethyl ester]
- Herbicidal effect rating HELAN ([1]; 3760 g ai/ha): 70
- Herbicidal effect rating IPOHE ([2]; 3760 g ai/ha): 100
- Herbicidal effect rating AVEFA (wild oat (Avena fatua) [3]; 3760 g ai/ha): 10
- Herbicidal effect rating AMARE ([4]; 3760 g ai/ha): 100
- Herbicidal effect rating SETFA ([5]; 3760 g ai/ha): 70
- Phytotoxicity rating HELAN ([6]; 3760 g ai/ha): 100
- Phytotoxicity rating IPOHE ([7]; 3760 g ai/ha): 100
- Phytotoxicity rating AVEFA (wild oat (Avena fatua) [8]; 3760 g ai/ha): 95
- Phytotoxicity rating SETFA ([10]; 3760 g ai/ha): 100

— patent publication US8598086B2, “3-halo-(arly)-4-iminotetrahydropicolinates and their use as herbicides” (Dow AgroSciences, LLC., priority 2009, dated 2013)
